Measured values taken from article PMC10507085, “Pharmacological inhibition of TBK1/IKKε blunts immunopathology in a murine model of SARS-CoV-2 infection” (Nature Communications, 2023).

Legend:
Experiment in all cases: biochemical
Parameters in all cases: KINOMEscan competition binding, DNA-tagged kinase against immobilised ligand, qPCR read-out
Settings in all cases: read-out: Percent Control
EPHB4 = EPHB4 (Homo sapiens, UniProt P54760)
LCK = LCK (Homo sapiens, UniProt P06239)
HIPK3 = HIPK3 (Homo sapiens, UniProt Q9H422)
MELK = MELK (Homo sapiens, UniProt Q14680)
[1] = target: T1, RSK3(Kin.Dom.2-C-terminal) (Homo sapiens, UniProt Q15349)
T1 construct: gene RPS6KA2; Kin.Dom.2 C-terminal
T1 sequence (Q15349 whole entry): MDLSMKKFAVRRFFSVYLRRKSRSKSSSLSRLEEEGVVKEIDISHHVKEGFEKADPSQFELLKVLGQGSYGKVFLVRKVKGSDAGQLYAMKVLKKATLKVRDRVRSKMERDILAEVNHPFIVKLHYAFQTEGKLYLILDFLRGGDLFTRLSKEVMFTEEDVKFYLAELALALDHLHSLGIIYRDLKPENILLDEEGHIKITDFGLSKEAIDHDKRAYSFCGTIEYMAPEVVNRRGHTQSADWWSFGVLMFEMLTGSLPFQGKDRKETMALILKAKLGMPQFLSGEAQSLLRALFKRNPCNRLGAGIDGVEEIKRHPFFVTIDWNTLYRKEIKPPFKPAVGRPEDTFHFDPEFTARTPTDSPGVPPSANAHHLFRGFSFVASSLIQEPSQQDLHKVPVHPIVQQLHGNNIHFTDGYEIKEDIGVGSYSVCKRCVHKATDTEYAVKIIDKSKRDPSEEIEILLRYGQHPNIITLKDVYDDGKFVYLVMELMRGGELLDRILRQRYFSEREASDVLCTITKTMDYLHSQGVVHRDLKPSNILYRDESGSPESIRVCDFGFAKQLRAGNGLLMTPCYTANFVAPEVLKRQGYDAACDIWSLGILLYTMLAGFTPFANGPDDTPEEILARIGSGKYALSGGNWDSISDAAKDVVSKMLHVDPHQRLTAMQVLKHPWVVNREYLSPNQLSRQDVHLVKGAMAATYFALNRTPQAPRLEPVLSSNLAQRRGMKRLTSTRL

FGFR1 = FGFR1 (Homo sapiens, UniProt P11362)
PRKD1 = PRKD1 (Homo sapiens, UniProt Q15139)
ERBB2 = ERBB2 (Homo sapiens, UniProt P04626)
BUB1 = BUB1 (Homo sapiens, UniProt O43683)
Sequence of BUB1 (O43683 whole entry): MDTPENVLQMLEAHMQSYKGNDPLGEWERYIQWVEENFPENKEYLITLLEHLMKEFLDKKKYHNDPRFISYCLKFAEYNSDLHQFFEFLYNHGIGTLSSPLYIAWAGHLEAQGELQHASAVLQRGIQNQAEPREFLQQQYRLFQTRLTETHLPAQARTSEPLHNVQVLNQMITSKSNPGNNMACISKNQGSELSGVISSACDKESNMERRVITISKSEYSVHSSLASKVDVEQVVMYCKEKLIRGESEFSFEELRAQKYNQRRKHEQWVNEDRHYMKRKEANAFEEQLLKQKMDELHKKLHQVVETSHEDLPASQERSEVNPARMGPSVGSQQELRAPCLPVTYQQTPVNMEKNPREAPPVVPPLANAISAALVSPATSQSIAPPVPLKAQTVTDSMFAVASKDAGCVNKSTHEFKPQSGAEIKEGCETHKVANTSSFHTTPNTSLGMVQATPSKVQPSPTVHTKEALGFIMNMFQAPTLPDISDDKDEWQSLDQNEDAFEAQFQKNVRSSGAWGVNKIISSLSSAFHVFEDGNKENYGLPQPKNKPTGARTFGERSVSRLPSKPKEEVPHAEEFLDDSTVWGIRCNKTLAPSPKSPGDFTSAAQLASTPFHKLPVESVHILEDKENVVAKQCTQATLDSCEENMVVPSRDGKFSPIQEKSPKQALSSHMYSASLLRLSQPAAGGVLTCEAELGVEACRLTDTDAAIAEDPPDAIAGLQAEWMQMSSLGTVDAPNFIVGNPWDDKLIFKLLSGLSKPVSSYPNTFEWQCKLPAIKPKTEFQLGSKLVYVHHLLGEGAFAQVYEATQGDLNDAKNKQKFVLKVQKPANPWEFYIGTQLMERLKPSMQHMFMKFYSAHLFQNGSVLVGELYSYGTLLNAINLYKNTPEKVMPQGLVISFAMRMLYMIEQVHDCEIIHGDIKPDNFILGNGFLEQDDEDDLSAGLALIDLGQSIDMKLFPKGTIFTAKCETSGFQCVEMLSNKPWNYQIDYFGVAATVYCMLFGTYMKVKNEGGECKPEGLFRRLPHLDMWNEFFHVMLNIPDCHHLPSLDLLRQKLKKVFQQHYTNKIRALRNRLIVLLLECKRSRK

CDK8 = CDK8 (Homo sapiens, UniProt P49336)
CHUK = CHUK (Homo sapiens, UniProt O15111)
CSNK1A1 = CSNK1A1 (Homo sapiens, UniProt P48729)
NTRK3 = NTRK3 (Homo sapiens, UniProt Q16288)
MAP3K2 = MAP3K2 (Homo sapiens, UniProt Q9Y2U5)
SIK1 = SIK1 (Homo sapiens, UniProt P57059)
Sequence of SIK1 (P57059 whole entry): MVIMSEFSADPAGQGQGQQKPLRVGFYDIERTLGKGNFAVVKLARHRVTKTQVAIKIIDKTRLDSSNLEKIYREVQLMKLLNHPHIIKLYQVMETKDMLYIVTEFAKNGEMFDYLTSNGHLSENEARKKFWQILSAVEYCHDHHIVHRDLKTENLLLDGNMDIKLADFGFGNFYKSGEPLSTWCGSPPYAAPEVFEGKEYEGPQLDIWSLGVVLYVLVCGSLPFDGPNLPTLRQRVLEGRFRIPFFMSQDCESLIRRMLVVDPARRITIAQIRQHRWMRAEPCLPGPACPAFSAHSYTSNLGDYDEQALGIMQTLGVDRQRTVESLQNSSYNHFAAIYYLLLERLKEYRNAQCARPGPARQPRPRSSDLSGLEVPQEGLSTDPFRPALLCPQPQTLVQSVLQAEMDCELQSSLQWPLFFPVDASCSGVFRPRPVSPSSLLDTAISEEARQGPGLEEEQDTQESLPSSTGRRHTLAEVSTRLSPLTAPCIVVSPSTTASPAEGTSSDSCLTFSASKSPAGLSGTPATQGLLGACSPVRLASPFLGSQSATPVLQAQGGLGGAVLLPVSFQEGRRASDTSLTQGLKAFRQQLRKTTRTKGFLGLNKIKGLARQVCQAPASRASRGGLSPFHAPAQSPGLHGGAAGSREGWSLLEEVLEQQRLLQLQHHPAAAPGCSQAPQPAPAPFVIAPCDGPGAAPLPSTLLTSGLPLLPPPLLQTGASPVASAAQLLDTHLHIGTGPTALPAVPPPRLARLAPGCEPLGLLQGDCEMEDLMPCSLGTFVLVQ

CHEK1 = CHEK1 (Homo sapiens, UniProt O14757)
Sequence of CHEK1 (O14757 whole entry): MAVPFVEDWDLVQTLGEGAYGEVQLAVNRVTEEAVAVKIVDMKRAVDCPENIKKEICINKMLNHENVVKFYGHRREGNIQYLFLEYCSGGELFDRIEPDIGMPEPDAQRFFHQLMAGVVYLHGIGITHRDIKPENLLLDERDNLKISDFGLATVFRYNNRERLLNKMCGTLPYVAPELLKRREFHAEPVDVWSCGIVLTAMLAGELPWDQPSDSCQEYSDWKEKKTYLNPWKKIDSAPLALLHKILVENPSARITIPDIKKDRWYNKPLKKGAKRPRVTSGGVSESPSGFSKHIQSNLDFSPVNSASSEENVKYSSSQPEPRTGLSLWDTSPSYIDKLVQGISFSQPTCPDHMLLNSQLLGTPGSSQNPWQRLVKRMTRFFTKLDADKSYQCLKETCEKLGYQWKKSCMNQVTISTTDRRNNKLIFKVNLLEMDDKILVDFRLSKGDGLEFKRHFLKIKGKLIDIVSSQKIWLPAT

FYN = FYN (Homo sapiens, UniProt P06241)
CLK2 = CLK2 (Homo sapiens, UniProt P49760)
Sequence of CLK2 (P49760 whole entry): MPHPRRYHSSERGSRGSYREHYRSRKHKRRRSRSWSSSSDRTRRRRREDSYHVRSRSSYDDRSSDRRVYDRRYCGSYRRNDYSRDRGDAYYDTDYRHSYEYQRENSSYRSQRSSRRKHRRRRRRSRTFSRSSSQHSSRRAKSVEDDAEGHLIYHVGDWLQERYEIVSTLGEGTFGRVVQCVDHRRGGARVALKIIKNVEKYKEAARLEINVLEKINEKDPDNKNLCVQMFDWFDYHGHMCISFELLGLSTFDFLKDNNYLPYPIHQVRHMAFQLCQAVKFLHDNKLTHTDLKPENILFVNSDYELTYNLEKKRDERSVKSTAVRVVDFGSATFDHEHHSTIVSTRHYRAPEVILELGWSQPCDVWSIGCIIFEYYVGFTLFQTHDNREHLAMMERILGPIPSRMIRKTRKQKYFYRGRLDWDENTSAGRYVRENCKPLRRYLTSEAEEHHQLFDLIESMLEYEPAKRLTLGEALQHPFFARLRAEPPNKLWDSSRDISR

PRKCI = PRKCI (Homo sapiens, UniProt P41743)
ANKK1 = ANKK1 (Homo sapiens, UniProt Q8NFD2)

Sequence of LCK (P06239 whole entry): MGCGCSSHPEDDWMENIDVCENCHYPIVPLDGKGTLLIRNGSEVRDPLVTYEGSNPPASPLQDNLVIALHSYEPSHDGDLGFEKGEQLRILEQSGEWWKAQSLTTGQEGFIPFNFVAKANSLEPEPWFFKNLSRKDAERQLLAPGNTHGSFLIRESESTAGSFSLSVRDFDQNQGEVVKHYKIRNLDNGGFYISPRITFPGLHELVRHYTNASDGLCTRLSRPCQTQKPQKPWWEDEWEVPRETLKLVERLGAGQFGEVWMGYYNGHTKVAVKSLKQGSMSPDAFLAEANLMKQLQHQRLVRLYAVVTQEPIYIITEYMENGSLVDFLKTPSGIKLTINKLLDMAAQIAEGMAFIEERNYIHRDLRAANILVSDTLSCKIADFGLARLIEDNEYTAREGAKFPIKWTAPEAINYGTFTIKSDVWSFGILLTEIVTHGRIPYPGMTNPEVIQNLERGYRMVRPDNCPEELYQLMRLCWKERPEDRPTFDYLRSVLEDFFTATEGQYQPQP
Sequence of EPHB4 (P54760 whole entry): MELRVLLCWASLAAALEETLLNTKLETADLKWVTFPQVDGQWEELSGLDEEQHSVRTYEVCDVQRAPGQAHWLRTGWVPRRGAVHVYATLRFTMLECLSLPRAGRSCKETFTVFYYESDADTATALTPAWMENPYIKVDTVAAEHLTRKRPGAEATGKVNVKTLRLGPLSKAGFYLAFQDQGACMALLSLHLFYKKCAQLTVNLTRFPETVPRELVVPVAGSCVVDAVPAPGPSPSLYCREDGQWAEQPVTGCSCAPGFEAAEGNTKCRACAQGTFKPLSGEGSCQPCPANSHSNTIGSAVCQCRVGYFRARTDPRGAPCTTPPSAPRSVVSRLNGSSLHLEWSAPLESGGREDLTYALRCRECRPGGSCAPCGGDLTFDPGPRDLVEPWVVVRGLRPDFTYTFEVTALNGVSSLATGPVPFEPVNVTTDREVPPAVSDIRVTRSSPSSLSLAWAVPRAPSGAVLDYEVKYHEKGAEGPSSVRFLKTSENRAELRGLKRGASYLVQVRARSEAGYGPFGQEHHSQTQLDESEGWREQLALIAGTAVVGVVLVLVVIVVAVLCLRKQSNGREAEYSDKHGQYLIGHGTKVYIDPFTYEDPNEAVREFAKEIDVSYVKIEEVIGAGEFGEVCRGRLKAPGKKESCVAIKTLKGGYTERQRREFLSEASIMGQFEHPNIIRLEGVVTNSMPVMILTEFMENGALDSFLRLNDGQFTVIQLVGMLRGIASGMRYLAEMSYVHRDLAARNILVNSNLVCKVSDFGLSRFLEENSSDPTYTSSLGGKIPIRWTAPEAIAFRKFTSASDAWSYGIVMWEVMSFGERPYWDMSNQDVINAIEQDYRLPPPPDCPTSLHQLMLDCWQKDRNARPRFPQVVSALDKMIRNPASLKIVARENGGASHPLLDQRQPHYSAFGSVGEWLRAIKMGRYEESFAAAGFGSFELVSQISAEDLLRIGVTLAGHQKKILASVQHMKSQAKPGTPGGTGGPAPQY

With `Oc1ccc(C2=Cc3ccc(O)cc3OC2)cc1` [compound 1, idronoxil] the remaining binding at 10 µM (EPHB4) was 90%, the remaining binding at 10 µM (LCK) was 60% and the remaining binding at 10 µM (HIPK3) was 33%. For the same compound, the remaining binding at 10 µM (MELK) was 64%, the remaining binding at 10 µM [1] was 75% and the remaining binding at 10 µM (FGFR1) was 92%. It also gave a remaining binding at 10 µM (PRKD1) of 96%, a remaining binding at 10 µM (ERBB2) of 88% and a remaining binding at 10 µM (BUB1) of 91%. It also gave a remaining binding at 10 µM (CDK8) of 58%, a remaining binding at 10 µM (CHUK) of 81% and a remaining binding at 10 µM (CSNK1A1) of 86%. For the same compound, the remaining binding at 10 µM (NTRK3) was 97%, the remaining binding at 10 µM (MAP3K2) was 83% and the remaining binding at 10 µM (SIK1) was 97%. It also gave a remaining binding at 10 µM (CHEK1) of 88%, a remaining binding at 10 µM (FYN) of 89% and a remaining binding at 10 µM (CLK2) of 69%. The remaining binding at 10 µM (PRKCI) was 70% and the remaining binding at 10 µM (ANKK1) was 66%.
